We go through six molecules from patent US5902794A (priority 1997, dated 1999).

For experiment [1], the system named is leukemic cell lines (HL-60, K-562, myc-K562, Molt-4). The experiment is described as follows: growth inhibition and viability of leukemic cell lines. Format: cell-based, human. Particulars: for growth inhibitory effect: alone; for enhancement of the analog effect: in combination with the analogue.
The subject of experiment [2] is MCF-7 ras breast cancer cell line. The experiment is described as follows: synergistic growth inhibition by C-6 and C-8 analogue combination. The experiment is classed as cell-based. As to conditions: Homo sapiens, MCF7, alone, read-out: percentage growth inhibition of analogue added alone. The protocol: (§1) All breast cancer cell lines were grown in IMEM supplemented with 10% fetal bovine serum, 20 mM HEPES, penicillin-streptomycin, and extra glutamine. Colon carcinoma cell lines were grown in EMEM supplemented with 10% FBS, EMEM, NEAA, HEPES 20 mM, extra glutamine, and penicillin-streptomycin. The cells were grown at 37° C. in humidified incubators in an atmosphere of 5% CO2.
(§2) For cell growth experiments, 2-3×10^5 cells/60 mm dish were seeded, and 24 hours later (Day 0), the medium was removed, and fresh medium and the additives were added then and every 48 hours thereafter The compounds of the present invention were added using 100× concentrated stock solutions. At desired times, cell counts in duplicate were performed on a Coulter counter after harvesting the cells with gentle trypsinization.
Synergism quotient was defined as the net growth inhibitory effect of the analogue combination divided by the sum of the net analogue effects on growth inhibition A quotient of >1 indicates a synergistic effect, while a quotient of <1 indicates an antagonistic effect.
Synergism of growth inhibition was determined by treatment of
cells with C-6 analogues and C-8 analogues alone and in combination at
Day 0 and Day 2 and counting the cell number at Day 4

Experiment [3] has as its system cultured human fibroblasts. Particulars: cited from earlier work.
The subject of experiment [4] is hormone-independent breast and colon cancer cell lines. The experiment is described as follows: growth inhibition of hormone-independent breast and colon cancer lines. The experiment is classed as cell-based, human. Particulars: for growth inhibitory effect: alone; for enhancement of the effect of the site-selective compounds: in combination with the site-selective compounds. Here is the method: as §1, §2

The subject of experiment [5] is breast and colon cancer cells. The experiment in a line: effect on cell morphology. The experiment is classed as cell-based, human. Particulars: 100 microM, three to four days. The text has this: The photographs were taken on Day 4, ×160.
Furthermore, the synergistic growth inhibitory effect of C-6 and C-8 analogue combinations was also reflected in the change in the cell morphology.

As a reminder, the inhibition is the relative decrease from the control value, in per cent.

Like-named read-outs stand apart in the source and are kept apart here.

Turning to `Nc1ncnc2c1nc(Br)n2[C@@H]1O[C@@H]2COP(=O)(O)O[C@H]2[C@H]1O` [8-bromo-cAMP], the “potency relative to 8-Cl-cAMP, times less potent” value (“potency relative to 8-Cl-cAMP” below) in experiment [1] lay in the range of 5 to 20 times.

On to `CNc1nc2c(N)ncnc2n1[C@@H]1O[C@@H]2COP(=O)(O)O[C@H]2[C@H]1O` [8-methylamino-cAMP], for which the inhibition at 1 µM in experiment [2] turned out to be 10%. For the same molecule, the “potency relative to 8-Cl-cAMP” value in experiment [1] fell in the range of 5 to 20 times.

For the molecule `O=C(Nc1ncnc2c1ncn2[C@@H]1O[C@@H]2COP(=O)(O)O[C@H]2[C@H]1O)c1ccccc1` [N^6 -benzoyl-cAMP], the inhibition at 0.5 µM in experiment [2] (0.5 μM) came out at 10%.

In the case of `CC(C)Cn1c(=O)n(C)c(=O)c2[nH]cnc21` [1-methyl-3-isobutylxanthine], the results for the DNA synthesis result in experiment [3] (added during first eight hours after serum addition) and in experiment [3] (added more than eight hours after serum addition) were “subsequent DNA synthesis was not delayed” and “inhibitory”, respectively. In addition, the growth inhibitory effect entry in experiment [1] (0.5 mmol/L) and in experiment [4] (0.5 mM) was “little or no growth inhibitory effect” in each case. In experiment [1], the “enhancement of the analog effect” value is “could not enhance the analog effect”. In experiment [4], the “enhancement of the effect of the site-selective compounds” value is on record as “could not enhance the effect”.

Regarding `Cn1c(=O)c2[nH]cnc2n(C)c1=O` [theophylline], the growth inhibitory effect entry in experiment [1] (0.1 mmol/L) and in experiment [4] (0.1 mM) was “little or no growth inhibitory effect” in each case. For the same molecule, the “enhancement of the analog effect” value in experiment [1] is “could not enhance the analog effect”. Also, in experiment [4], the “enhancement of the effect of the site-selective compounds” value was “could not enhance the effect”.

For the molecule `CSc1nc2c(N)ncnc2n1[C@@H]1O[C@@H]2COP(=O)(O)O[C@H]2[C@H]1O` [8-methylthio-cAMP], in experiment [5], the morphological change result is reported as “induced the morphological change”. Further, the inhibition at 1 µM in experiment [2] came out at 15%. Also, the “potency relative to 8-Cl-cAMP” value in experiment [1] lay within 5 to 20 times.
